In US12103915B2, “TEAD inhibitors and methods of uses thereof” (Insilico Medicine IP Limited, priority 2022, dated 2024):
Like-named read-outs stand apart in the source and are kept apart here.

Key:
[1] = test system: NCI-H226 cells; assay: Cell growth assay (CellTiter-Glo); type: cell-based, human; settings: 7 days treatment, CellTiter-Glo luminescence, read-out: H226 CTG IC50
Protocol: Example A: Cell Growth Assay
CellTiter-Glo reagent (CTG reagent, Promega, G7573).
[…] Also seeding an extra plate as Day 0 control measurement. The microplates were incubated at 37° C., 5% CO2 overnight.
Compounds were 3-fold serial diluted in DMSO and final top-concentration was […], 10 points. 0.3% DMSO as vehicle control. In addition, […] of CTG reagent was added into the extra plate and incubated at room temperature for 30 minutes and detected luminescence signals as Day 0 control by using EnVision (PerkinElmer, 2104 Mutilabel Reader).
Incubated other compounds treated plates at 37° C. for another 7 days and […] of CTG reagent was added into the plates and incubated at room temperature for 30 minutes and detected luminescence signals.
Day 0 luminescence signals were used as negative control or baseline. • Signalday0=average luminescence signals of Day 0 control cells. • Signalblank control=average luminescence signals of blank control. • SignalDMSO vehicle control=average luminescence signals of Day 7 DMSO vehicle control cells. • Signalcpds treatment=luminescence signals of Day 7 compounds treatment cells. Inhibition %=1−(Signalcpds treatment−Signalblank control)/(SignalDMSO vehicle control−Signalblank control)*100.
(Inhibitory concentration 50% (IC50) and maximum inhibition % were calculated using dose response curves.

[2] = target: TEAD4 (Homo sapiens, UniProt Q15561); assay: Thermal shift assay TEAD4; type: binding
Chain of TEAD4 (Q15561 whole entry, species assumed): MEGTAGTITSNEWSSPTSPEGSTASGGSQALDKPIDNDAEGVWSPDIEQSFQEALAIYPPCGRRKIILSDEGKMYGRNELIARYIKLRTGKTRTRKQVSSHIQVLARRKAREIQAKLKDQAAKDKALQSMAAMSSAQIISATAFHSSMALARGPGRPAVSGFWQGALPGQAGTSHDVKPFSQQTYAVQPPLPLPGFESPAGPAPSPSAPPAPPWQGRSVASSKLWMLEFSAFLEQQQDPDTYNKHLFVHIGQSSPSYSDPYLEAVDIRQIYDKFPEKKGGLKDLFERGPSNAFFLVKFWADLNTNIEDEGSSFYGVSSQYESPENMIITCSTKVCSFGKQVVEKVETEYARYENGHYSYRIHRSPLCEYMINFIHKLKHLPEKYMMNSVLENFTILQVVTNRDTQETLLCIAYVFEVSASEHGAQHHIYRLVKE
Protocol: (§1) Example B: Thermal Shift Assay
(§2) 1) Prepare a fresh dilution of Protein Thermal Shift™ Dye (Applied Biosystems, 1000×) to 8× by […].
(§3) 2) To ensure the same DMSO concentration, the compounds were diluted as follows: Prepare 10 mM stock solution of compounds;
(§4) The final DMSO concentration was 0.1%
(§5) 10 μM: Diluting stock solution to 100 μM by using PBS.
(§6) 1 μM: Diluting stock solution to 1 mM by using DMSO, then dilute to 10 μM by using PBS.
TEAD4: the stock concentration was 2.3 mg/ml; the final concentration was 0.1 mg/ml.
(§7) 4) Place the appropriate reaction plate or tubes on ice, then prepare the protein melt reactions:
(§8) 5) Pipet each reaction up and down 10 times to mix well.
(§9) 6) Seal the plate with MicroAmp™ Optical Adhesive Film, spin it at 1000 rpm for 1 minute.
(§10) 7) Set up and run on the qPCR instrument.
(§11) Using thermal Shift™ Software v1.3 to analysis.

[3] = target: TEAD1 (Homo sapiens, UniProt P28347); assay: Thermal shift assay TEAD1; type: binding
Chain of TEAD1 (P28347 whole entry, species assumed): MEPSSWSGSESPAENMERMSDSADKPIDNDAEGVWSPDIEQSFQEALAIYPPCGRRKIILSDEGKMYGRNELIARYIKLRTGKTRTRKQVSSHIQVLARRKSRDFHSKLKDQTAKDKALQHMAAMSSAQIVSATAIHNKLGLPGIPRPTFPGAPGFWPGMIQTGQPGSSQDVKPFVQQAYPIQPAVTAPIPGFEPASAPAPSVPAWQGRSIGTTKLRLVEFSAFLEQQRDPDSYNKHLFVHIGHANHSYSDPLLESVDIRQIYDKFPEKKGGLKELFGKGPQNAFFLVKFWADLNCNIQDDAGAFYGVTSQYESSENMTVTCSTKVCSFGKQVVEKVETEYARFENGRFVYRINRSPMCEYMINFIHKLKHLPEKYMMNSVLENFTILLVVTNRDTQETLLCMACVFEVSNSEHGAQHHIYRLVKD
Protocol: as §1, §2, §3, §4, §5, §6
(§12) TEAD1: the stock concentration was 2.9 mg/ml; the final concentration was 0.2 mg/ml. TEAD2: the stock concentration was 1.8 mg/ml; the final concentration was 0.08 mg/ml.
as §7, §8, §9, §10, §11

[4] = target: TEAD2 (Homo sapiens, UniProt Q15562); assay: Thermal shift assay TEAD2; type: binding
Chain of TEAD2 (Q15562 whole entry, species assumed): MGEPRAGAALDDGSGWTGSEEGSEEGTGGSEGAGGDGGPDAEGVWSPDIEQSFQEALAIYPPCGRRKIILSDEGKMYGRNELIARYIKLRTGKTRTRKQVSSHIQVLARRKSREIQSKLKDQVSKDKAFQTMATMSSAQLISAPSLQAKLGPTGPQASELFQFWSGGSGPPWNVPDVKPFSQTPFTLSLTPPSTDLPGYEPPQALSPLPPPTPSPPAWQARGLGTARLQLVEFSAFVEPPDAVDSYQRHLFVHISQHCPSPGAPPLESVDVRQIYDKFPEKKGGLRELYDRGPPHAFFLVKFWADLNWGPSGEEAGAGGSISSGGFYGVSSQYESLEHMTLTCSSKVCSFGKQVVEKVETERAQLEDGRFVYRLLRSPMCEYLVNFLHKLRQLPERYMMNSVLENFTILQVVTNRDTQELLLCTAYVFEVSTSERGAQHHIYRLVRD
Protocol: as §1, §2, §3, §4, §5, §6, §12, §7, §8, §9, §10, §11

[5] = target: TEAD3 (Homo sapiens, UniProt Q99594); assay: Thermal shift assay TEAD3; type: binding
Chain of TEAD3 (Q99594 whole entry, species assumed): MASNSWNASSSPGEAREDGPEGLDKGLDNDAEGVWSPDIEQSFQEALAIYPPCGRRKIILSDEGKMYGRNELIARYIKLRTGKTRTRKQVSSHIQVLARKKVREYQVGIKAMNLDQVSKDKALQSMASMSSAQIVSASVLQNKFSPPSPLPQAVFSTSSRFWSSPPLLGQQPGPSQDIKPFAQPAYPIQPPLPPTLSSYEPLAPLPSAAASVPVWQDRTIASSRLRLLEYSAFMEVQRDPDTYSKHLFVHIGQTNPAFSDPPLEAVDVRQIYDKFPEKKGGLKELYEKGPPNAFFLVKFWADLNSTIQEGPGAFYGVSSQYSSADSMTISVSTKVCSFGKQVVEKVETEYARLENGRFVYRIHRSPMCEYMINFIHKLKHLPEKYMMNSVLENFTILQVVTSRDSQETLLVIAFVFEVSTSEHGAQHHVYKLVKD
Protocol: as §1, §2, §3, §4, §5, §6
TEAD3: the stock concentration was 2.4 mg/ml; the final concentration was 0.1 mg/ml.
as §7, §8, §9, §10, §11

Row | Structure (SMILES) | IC50 ([1]; Homo sapiens, NCI-H226, 168 h) [µM] | TEAD4 ΔTm [2] [°C] | TEAD1 ΔTm [3] [°C] | TEAD2 ΔTm [4] [°C] | TEAD3 ΔTm [5] [°C] | IC50 [1] [µM]
1 | O=C(O)[C@@H]1CC1c1cc(-c2ccc(C(F)(F)F)cc2)cc2cn[nH]c12 (mixture of isomers) [Example 1] | 1 to 30 | – | – | – | – | –
2 | O=C(O)[C@@H]1CC1c1cc(-c2ccc(C(F)(F)F)cc2)cc2cn(-c3cccnc3)nc12 (mixture of isomers) [Example 4] | 1 to 30 | 4.2 | 5 | 1.6 | 1.1 | –
3 | O=C(O)[C@@H]1CC1c1cc(-c2ccc(C(F)(F)F)cc2)cc2[nH]ncc12 (mixture of isomers) [Example 5] | 1 to 30 | – | – | – | – | –
4 | Cn1cc2c(C3C[C@H]3C(=O)O)cc(-c3ccc(C(F)(F)F)cc3)cc2n1 (mixture of isomers) [Example 6] | 0.1 to 0.5 | – | – | – | – | –
5 | Cn1ncc2c(C3C[C@H]3C(=O)O)cc(-c3ccc(C(F)(F)F)cc3)cc21 (mixture of isomers) [Example 8] | – | – | – | – | – | 1 to 30
6 | Cn1cc2cc(-c3ccc(OC(F)(F)F)cc3)cc(C3C[C@H]3C(=O)O)c2n1 (mixture of isomers) [Example 12] | < 0.1 | 11.5 | 7.7 | 9.4 | 2.3 | –
7 | O=C(O)[C@@H]1CC1c1cc(-c2ccc(C(F)(F)F)cc2)cc2scnc12 (mixture of isomers) [Example 14] | 1 to 30 | 0.2 | 0.4 | 0.3 | 0 | –
8 | Cc1cn2cc(Oc3ccc(C(F)(F)F)cc3)cc(C3C[C@H]3C(=O)N3CC(O)C3)c2n1 (single isomer, unassigned) [Example 85a] | 1 to 30 | – | – | – | – | –

Continued, values first:

Row | IC50 ([1]; Homo sapiens, NCI-H226, 168 h) [µM] | TEAD4 ΔTm [2] [°C] | TEAD1 ΔTm [3] [°C] | TEAD2 ΔTm [4] [°C] | TEAD3 ΔTm [5] [°C] | IC50 [1] [µM] | Structure (SMILES)
9 | 1 to 30 | – | – | – | – | – | Cn1ncc2cc(-c3ccc(C(F)(F)F)cc3)cc(C3C[C@H]3C(=O)O)c21 (mixture of isomers) [Example 3]
10 | – | 7.2 | 5.7 | 5.7 | 2 | 0.1 to 0.5 | Cn1ncc2c(C3C[C@H]3C(=O)O)cc(-c3ccc(C(F)(F)F)cc3)cc21 (mixture of isomers) [Example 7]
11 | 0.1 to 0.5 | 5.6 | 5.8 | 4.1 | 1.2 | – | O=C(O)[C@@H]1CC1c1cc(-c2ccc(C(F)(F)F)cc2)cc2c1cnn2C(F)F (mixture of isomers) [Example 9]
12 | 0.1 to 0.5 | 7.3 | 6 | 7.7 | 2 | – | Cn1ncc2c(C3C[C@H]3C(=O)O)cc(-c3ccc(OC(F)(F)F)cc3)cc21 (mixture of isomers) [Example 10]
13 | < 0.1 | 8.3 | 7.7 | 6.6 | 1.8 | – | O=C(O)[C@@H]1CC1c1cc(-c2ccc(C(F)(F)F)cc2)cc2cccnc12 (mixture of isomers) [Example 13]
14 | 0.1 to 0.5 | 3.7 | 5 | 5.1 | 1.2 | – | CN1Cc2cc(-c3ccc(C(F)(F)F)cc3)cc(C3C[C@H]3C(=O)O)c2C1=O (mixture of isomers) [Example 15]
15 | 1 to 30 | 1.8 | 1.9 | 3.4 | 0.9 | – | Cn1ncc2c(C3C[C@H]3C(=O)O)cc(OCc3ccc(C(F)(F)F)cc3)cc21 (mixture of isomers) [Example 19]
16 | 0.5 to 1 | – | – | – | – | – | Cn1ncc2c([C@@H]3C[C@H]3C(=O)NCCO)cc(-c3ccc(C(F)(F)F)cc3)cc21 (racemic) [Example 29]
17 | 1 to 30 | – | – | – | – | – | Cn1cc2cc(Oc3ccc(C(F)(F)F)cc3)cc([C@@H]3C[C@H]3C(=O)N3CC(O)C3)c2n1 (single isomer, unassigned) [Example 58a]
18 | < 0.1 | – | – | – | – | – | C[C@H](C#N)NC(=O)[C@@H]1C[C@H]1c1cc(Oc2ccc(C(F)(F)F)cc2)cc2cn(C)nc12 (single isomer, unassigned) [Example 68]
19 | 1 to 30 | – | – | – | – | – | C=C(CS(=O)(=O)NC)c1cc(-c2ccc(C(F)(F)F)cc2)cc2c1cnn2C [Example 43]
